Among the data in ChEMBL document CHEMBL1131887, “Blockers of human T cell Kv1.3 potassium channels using de novo ligand design and solid-phase parallel combinatorial chemistry” (Bioorg Med Chem Lett, 1999) are IC50 values, retold here.

This assay concerns the target Potassium voltage-gated channel subfamily A member 3 (Homo sapiens, UniProt P22001). Description: Displacement of [125I]- ChTX from human T cell voltage-gated potassium channel subunit Kv1.3. The class given is cell-based.

Structures are written as SMILES.

Chain of Potassium voltage-gated channel subfamily A member 3 (P22001 whole entry): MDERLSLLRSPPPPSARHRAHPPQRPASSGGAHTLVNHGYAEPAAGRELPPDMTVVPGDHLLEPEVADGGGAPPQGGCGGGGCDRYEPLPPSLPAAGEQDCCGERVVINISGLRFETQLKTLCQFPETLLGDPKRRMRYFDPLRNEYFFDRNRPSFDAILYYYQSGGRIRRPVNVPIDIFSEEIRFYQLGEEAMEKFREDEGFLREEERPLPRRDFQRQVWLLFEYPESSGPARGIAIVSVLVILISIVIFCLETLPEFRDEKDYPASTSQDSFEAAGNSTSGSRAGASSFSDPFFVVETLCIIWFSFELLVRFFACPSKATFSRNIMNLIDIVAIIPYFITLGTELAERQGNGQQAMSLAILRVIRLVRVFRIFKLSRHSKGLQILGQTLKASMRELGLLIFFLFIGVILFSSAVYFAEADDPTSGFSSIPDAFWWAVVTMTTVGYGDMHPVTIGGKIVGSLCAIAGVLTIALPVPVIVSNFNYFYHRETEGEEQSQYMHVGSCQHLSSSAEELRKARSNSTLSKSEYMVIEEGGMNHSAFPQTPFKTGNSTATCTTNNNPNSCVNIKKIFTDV

The term IC50 denotes the midpoint of a concentration-inhibition curve. `CC(C)NC(=O)c1cc(/C=C/c2ccc(Cl)c(F)c2)ccc1-c1ccc(Cl)cc1` had an IC50 of 3.7 µM. This lies in the single-digit micromolar range. `CCCCNC(=O)c1cc(/C=C/Cc2ccccc2)ccc1-c1ccc(Cl)cc1` returned an IC50 of 6.1 µM. For `CC(C)NC(=O)c1cc(/C=C/Cc2ccccc2)ccc1-c1ccc(Cl)cc1` the value was 5.6 µM.

In turn, `NC(N)=NNC(=O)c1cc(/C=C/c2ccc(F)cc2)ccc1-c1ccc(Cl)cc1` had an IC50 of 3.9 µM. Under `CC(C)NC(=O)c1cc(/C=C/c2ccc(OCc3ccccc3)cc2)ccc1-c1ccc(Cl)cc1` stands 9.9 µM; under `CCCCNC(=O)c1cc(/C=C/c2ccccc2F)ccc1-c1ccc(Cl)cc1`, 8 µM; under `CCCNC(=O)c1cc(/C=C/CCc2ccccc2)ccc1-c1ccc(Cl)cc1`, 4 µM.

`CNC(=O)c1cc(/C=C/c2ccc(OCc3ccccc3)c(OCc3ccccc3)c2)ccc1-c1ccc(Cl)cc1` had a half-inhibitory concentration (IC50) of 2.9 µM.

`CC(C)NC(=O)c1cc(/C=C/c2cccc(Cl)c2)ccc1-c1ccc(Cl)cc1`: the half-inhibitory concentration (IC50) is 10.1 µM. `CCCNC(=O)c1cc(/C=C/Cc2ccccc2)ccc1-c1ccc(Cl)cc1` gave an IC50 of 5.8 µM. Under `CCNC(=O)c1cc(/C=C/CCc2ccccc2)ccc1-c1ccc(Cl)cc1` stands 3.2 µM. The compound `CCCNC(=O)c1cc(/C=C/c2ccc(F)cc2)ccc1-c1ccc(Cl)cc1` had an IC50 of 9.7 µM. For `CCCCC/N=c1\ccn(Cc2ccccc2)c2ccccc12` [CP-339818] the value was 0.2 µM.
